Measurements as given in patent US20260078135A1, “POLYCYCLIC QUINAZOLINES FOR INHIBITION OF ERBB2” (Enliven Inc., priority 2022, published 2026).

What was measured:
[1] = molecular target: T1, phosphorylated ERBB2 (pERBB2) (Homo sapiens, UniProt P04626); test: Detection of phosphorylated ERBB2 (pERBB2) by ELISA in BT-474 cells; format: cell-based; conditions: four hour incubation
T1 construct: endogenous in cells; host or cells: BT-474
Summary of the method: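 BT-474 cells were treated with compounds (fourfold dilutions, 10 μM to 0.01 nM final) for 4 h at 37 °C, then lysed. pERBB2 in lysates was quantified by ELISA with an HRP anti-phosphotyrosine detection antibody and TMB read at 450 nm; % relative activity was normalized to no-cell and 0.1% DMSO controls.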

Ba/F3 ERBB2 YVMA = Ba/F3 ERBB2 YVMA (Homo sapiens, UniProt P04626, DUP772-775, cells depend on it); test: Cell viability assay (CellTiter Glo), Ba/F3 cells engineered to express ERBB2 YVMA; format: cell-based, mouse; conditions: Ba/F3 cells expressing human ERBB2 YVMA mutant, 72 hours, read-out: Ba/F3 ERBB2 YVMA, IC50
Protocol: Cells were treated with compounds, and cell viability was measured as a metric of kinase inhibition.
BT-474, A431, MDA-MB-175VII, NCI-H1781, MCF7, and Ba/F3 cell lines were tested. The Ba/F3 cell line is IL-3-dependent mouse cell line derived from the C3H mouse strain. Ba/F3 cell lines were engineered to express human ERBB2 or EGFR kinases, rendering the cells IL-3 independent. The lines were generated via retroviral transduction utilizing a Moloney murine leukemia virus (MMLV) promoter, and constructs are stably integrated into the cell genome. The sequences of the ERBB2 and EGFR genes used were NCBI Reference Sequences NM_004448.3 and NM_005228.3, respectively.
BT-474, A431, MDA-MB-175VII, NCI-H1781 and MCF7 cells were grown in the appropriate growth medium as described in Table B2 below, and harvested at 50-80% confluence. BT-474, A431, MDA-MB-175VII, NCI-H1781 and MCF7 cells were counted and seeded at 2,000 or 1,500 cells per well in 384-well tissue culture plates (see Table B2). Similarly, Ba/F3 cell lines engineered to express EGFR, ERBB2, or ERBB2 mutants were grown, harvested, counted and seeded at 3000 cells per well in 96-well plates. A subset of wells contained media only (low control, “LC”).
Table B1 provides the growth media and number of cells seeded per well for the each cell line.
Compounds were dissolved in DMSO and serially diluted. Serially-diluted compound or a DMSO only control (high control, “HC”) was added to the plated cells in each well. Compounds were tested at concentrations of about 10 μM to 0.51 nM, using three-fold dilutions. The final proportion of DMSO never exceeded 0.1%.
Plates were placed in a 37° C., 5% CO2 incubator for 72 hours. Plates were then removed from the incubator and equilibrated for 15 minutes at room temperature. 40 μl of CellTiter Glo reagent (Promega) was added to measure the relative level of metabolically active cells by quantifying intracellular ATP concentrations. Plates were incubated for 30 minutes at room temperature, and luminescence was measured. Percent viability was normalized to a vehicle control only using the following formula: % viability=100×(Lumsample−LumLC)/(LumHC−LumLC). Graphical curves were fitted using a nonlinear regression model with a sigmoidal dose response.

[2] = molecular target: T2, phosphorylated EGFR (pEGFR) (Homo sapiens, UniProt P00533); test: Detection of phosphorylated EGFR (pEGFR) by AlphaLISA in EGF-stimulated A431 cells; format: cell-based; conditions: A431 cells (10% FBS), 4 hours incubation, EGF 30 ng/mL for 10 minutes
T2 construct: performed to measure phosphorylated EGFR levels using A431 cells (10% FBS); endogenous in cells; host or cells: A431
Summary of the method: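 pEGFR was quantified by AlphaLISA in lysates of A431 cells (10% FBS) given a 10 min pulse of EGF at 30 ng/mL after 4 h compound exposure at 37 °C. IC50 came from a four-parameter fit of % inhibition between DMSO and staurosporine controls.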

Sequence of Ba/F3 ERBB2 YVMA (P04626 with tags, fused parts or gaps DUP772-775): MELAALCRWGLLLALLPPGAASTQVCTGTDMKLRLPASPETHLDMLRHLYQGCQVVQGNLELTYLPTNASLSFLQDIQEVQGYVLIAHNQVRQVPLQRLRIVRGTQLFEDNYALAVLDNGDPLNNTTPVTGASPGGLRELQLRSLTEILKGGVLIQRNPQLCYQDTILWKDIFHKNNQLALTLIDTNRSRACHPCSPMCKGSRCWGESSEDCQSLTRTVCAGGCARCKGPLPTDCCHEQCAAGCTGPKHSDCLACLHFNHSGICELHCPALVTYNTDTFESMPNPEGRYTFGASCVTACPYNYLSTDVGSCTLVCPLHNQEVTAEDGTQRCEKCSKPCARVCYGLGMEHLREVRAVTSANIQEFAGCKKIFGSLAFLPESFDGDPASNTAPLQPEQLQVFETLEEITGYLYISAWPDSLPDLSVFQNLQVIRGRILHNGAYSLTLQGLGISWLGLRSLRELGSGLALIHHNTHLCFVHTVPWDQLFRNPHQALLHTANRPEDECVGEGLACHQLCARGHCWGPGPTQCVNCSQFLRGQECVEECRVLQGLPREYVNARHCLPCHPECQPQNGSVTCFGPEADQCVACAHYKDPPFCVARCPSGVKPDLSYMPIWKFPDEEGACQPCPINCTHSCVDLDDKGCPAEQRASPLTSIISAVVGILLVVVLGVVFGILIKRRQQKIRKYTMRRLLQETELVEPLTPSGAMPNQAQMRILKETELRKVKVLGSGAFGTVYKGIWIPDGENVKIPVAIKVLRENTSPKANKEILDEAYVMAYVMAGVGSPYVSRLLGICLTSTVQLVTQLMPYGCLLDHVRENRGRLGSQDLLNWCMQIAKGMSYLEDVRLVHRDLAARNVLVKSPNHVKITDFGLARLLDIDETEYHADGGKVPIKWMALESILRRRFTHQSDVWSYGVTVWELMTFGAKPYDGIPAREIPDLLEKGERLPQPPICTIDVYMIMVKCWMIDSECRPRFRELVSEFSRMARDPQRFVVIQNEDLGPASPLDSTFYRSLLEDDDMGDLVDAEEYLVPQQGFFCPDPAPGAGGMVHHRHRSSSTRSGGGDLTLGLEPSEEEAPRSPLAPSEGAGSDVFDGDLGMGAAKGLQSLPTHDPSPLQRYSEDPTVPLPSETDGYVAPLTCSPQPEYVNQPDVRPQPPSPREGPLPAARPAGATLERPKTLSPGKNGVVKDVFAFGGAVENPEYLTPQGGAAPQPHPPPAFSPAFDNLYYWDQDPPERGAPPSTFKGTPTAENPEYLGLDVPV
T1 sequence (P04626 23-1255): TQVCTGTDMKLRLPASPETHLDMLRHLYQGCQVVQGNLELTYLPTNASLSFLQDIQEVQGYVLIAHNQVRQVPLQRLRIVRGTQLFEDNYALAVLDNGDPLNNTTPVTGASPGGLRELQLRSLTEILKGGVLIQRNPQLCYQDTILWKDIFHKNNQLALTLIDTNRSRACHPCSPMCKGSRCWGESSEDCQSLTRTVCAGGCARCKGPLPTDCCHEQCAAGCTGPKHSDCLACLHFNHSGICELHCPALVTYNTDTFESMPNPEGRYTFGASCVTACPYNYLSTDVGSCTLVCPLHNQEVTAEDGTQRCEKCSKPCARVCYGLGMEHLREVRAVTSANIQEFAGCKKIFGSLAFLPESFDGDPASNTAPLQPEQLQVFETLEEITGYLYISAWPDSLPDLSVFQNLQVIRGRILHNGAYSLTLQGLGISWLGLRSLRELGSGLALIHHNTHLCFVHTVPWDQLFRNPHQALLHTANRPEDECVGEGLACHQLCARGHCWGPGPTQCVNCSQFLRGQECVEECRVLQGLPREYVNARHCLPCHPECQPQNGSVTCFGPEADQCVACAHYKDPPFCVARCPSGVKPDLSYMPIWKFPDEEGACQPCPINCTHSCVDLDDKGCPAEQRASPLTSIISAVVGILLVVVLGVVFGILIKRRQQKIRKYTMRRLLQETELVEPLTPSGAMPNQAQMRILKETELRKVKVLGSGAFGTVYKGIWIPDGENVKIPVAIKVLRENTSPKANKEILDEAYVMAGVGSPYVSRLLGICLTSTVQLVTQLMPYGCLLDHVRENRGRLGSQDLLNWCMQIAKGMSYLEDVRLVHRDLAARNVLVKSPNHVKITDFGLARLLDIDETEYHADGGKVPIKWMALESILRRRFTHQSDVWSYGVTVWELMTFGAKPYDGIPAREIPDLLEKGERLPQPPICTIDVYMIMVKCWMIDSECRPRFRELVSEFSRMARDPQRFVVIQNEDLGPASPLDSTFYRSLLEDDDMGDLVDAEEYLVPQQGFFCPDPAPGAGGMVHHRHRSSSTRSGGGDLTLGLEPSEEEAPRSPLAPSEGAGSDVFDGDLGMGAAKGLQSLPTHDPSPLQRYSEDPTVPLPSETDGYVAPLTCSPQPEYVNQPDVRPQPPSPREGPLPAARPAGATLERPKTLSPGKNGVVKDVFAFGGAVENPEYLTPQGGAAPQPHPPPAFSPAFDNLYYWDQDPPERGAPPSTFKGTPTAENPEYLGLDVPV
T2 sequence (P00533 25-1210): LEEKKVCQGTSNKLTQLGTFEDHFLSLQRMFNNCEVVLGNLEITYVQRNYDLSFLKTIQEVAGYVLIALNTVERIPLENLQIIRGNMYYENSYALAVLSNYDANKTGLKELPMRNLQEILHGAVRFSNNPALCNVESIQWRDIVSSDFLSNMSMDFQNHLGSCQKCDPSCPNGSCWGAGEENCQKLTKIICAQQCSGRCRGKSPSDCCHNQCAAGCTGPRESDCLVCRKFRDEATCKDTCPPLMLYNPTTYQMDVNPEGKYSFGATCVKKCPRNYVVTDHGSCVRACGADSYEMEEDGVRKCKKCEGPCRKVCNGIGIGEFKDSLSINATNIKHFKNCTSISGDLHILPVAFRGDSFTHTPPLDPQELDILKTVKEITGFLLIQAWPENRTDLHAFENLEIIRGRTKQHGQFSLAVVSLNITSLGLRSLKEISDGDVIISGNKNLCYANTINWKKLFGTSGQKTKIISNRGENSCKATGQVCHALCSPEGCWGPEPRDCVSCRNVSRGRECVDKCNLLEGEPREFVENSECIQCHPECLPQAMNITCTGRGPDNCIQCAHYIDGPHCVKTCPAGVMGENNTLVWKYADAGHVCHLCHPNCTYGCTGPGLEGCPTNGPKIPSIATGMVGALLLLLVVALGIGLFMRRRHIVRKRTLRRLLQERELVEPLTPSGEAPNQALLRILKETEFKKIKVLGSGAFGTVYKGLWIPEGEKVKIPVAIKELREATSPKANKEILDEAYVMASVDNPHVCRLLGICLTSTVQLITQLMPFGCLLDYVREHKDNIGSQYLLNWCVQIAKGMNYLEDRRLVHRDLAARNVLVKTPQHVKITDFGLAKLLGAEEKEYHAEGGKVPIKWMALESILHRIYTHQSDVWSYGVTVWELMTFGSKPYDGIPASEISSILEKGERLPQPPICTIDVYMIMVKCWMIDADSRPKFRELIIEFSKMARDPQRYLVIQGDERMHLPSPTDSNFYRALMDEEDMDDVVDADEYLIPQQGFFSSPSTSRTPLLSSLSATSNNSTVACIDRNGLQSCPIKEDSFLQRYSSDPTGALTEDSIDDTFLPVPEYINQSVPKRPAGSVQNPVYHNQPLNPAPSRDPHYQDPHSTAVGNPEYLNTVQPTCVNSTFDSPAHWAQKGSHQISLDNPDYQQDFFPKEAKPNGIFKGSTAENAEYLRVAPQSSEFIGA

Structure (SMILES)	IC50 [1]	GI50 (Ba/F3 ERBB2 YVMA)	IC50 [2]
C=CC(=O)N1CCN2c3cc4c(Nc5ccc(Oc6ccn7ncnc7c6)c(C)c5)ncnc4cc3OC[C@H]2C1 [Compound 4, (R)-1-(11-((4-([1,2,4]triazolo[1,5-a]pyridin-7-yloxy)-3-methylphenyl)amino)-1,2,4a,5-tetrahydropyrazino[1′,2′:4,5][1,4]oxazino[3,2-g]quinazolin-3(4H)-yl)prop-2-en-1-one]	14.1 nM	62.4 nM	1330 nM
Cc1cc(Nc2ncnc3ccc4c(c23)OC[C@H]2CN4CCN2C(=O)/C=C/[C@H](C)N(C)C)ccc1Oc1ccn2ncnc2c1 [Compound 89, (4S,E)-1-((3R)-13-((4-([1,2,4]triazolo[1,5-a]pyridin-7-yloxy)-3-methylphenyl)amino)-2,3,5,6-tetrahydro-4H-3,7-methano[1,4,7]oxadiazonino[2,3-f]quinazolin-4-yl)-4-(dimethylamino)pent-2-en-1-one]	172 nM	264 nM	> 10000 nM
Cc1cc(Nc2ncnc3ccc4c(c23)OC[C@H]2CN4CCN2C(=O)/C=C/[C@@H](C)N(C)C)ccc1Oc1ccn2ncnc2c1 [Compound 88, (4R,E)-1-((3R)-13-((4-([1,2,4]triazolo[1,5-a]pyridin-7-yloxy)-3-methylphenyl)amino)-2,3,5,6-tetrahydro-4H-3,7-methano[1,4,7]oxadiazonino[2,3-f]quinazolin-4-yl)-4-(dimethylamino)pent-2-en-1-one formic acid]	44.3 nM	60.3 nM	2820 nM
C=CC(=O)N1CCN2c3ccc4ncnc(Nc5ccc(Oc6ccn7ncnc7c6)c(C)c5)c4c3OC[C@@H]2C1 [Compound 5, (S)-1-(4-((4-([1,2,4]triazolo[1,5-a]pyridin-7-yloxy)-3-methylphenyl)amino)-6a,7,9,10-tetrahydropyrazino[1′,2′:4,5][1,4]oxazino[2,3-f]quinazolin-8(6H)-yl)prop-2-en-1-one]	7.89 nM	4.62 nM	517 nM
Cc1cc(Nc2ncnc3cnc4c(c23)OC[C@H]2CNCCN42)ccc1Oc1ccc2c(c1)ncn2C [Compound 130, (R)—N-(3-methyl-4-((1-methyl-1H-benzo[d]imidazol-5-yl)oxy)phenyl)-6,6a,7,8,9,10-hexahydropyrazino[1,2-d]pyrimido[5′,4′:4,5]pyrido[3,2-b][1,4]oxazin-4-amine]	65 nM	170 nM	> 10000 nM
Cc1cc(Nc2ncnc3ccc4c(c23)OC[C@H]2CN4CCN2)ccc1Oc1ccn2ncnc2c1 [Compound 51, (3R)—N-(4-([1,2,4]triazolo[1,5-a]pyridin-7-yloxy)-3-methylphenyl)-3,4,5,6-tetrahydro-2H-3,7-methano[1,4,7]oxadiazonino[2,3-f]quinazolin-13-amine]	128 nM	> 500 nM	> 10000 nM
C=CC(=O)N1CCN2c3cc4c(Nc5ccc(Oc6ccn7ncnc7c6)c(C)c5)ncnc4cc3OC[C@@H]2C1 [Compound 3, (S)-1-(11-((4-([1,2,4]triazolo[1,5-a]pyridin-7-yloxy)-3-methylphenyl)amino)-1,2,4a,5-tetrahydropyrazino[1′,2′:4,5][1,4]oxazino[3,2-g]quinazolin-3(4H)-yl)prop-2-en-1-one]	12.8 nM	10.4 nM	212 nM
Cc1cc(Nc2ncnc3ccc4c(c23)OC[C@H]2CN4CCN2C(=O)/C=C/C2(F)CN(C)C2)ccc1Oc1ccn2ncnc2c1 [Compound 81, (E)-1-((3R)-13-((4-([1,2,4]triazolo[1,5-a]pyridin-7-yloxy)-3-methylphenyl)amino)-2,3,5,6-tetrahydro-4H-3,7-methano[1,4,7]oxadiazonino[2,3-f]quinazolin-4-yl)-3-(3-fluoro-1-methylazetidin-3-yl)prop-2-en-1-one]	17.2 nM	8.51 nM	785 nM
Cc1cc(Nc2ncnc3ccc4c(c23)OC[C@H]2CN(C(=O)/C=C/CN(C)C)CCN42)ccc1Oc1ccn2ncnc2c1 [Compound 18, (R,E)-1-(4-((4-([1,2,4]triazolo[1,5-a]pyridin-7-yloxy)-3-methylphenyl)amino)-6a,7,9,10-tetrahydropyrazino[1′,2′:4,5][1,4]oxazino[2,3-f]quinazolin-8(6H)-yl)-4-(dimethylamino)but-2-en-1-one]	240 nM	223 nM	> 10000 nM
C=CC(=O)N1CCN2c3cc4c(Nc5ccc(Oc6ccc7c(c6)ncn7C)c(C)c5)ncnc4cc3OC[C@H]2C1 [Compound 7, (R)-1-(11-((3-methyl-4-((1-methyl-1H-benzo[d]imidazol-5-yl)oxy)phenyl)amino)-1,2,4a,5-tetrahydropyrazino[1′,2′:4,5][1,4]oxazino[3,2-g]quinazolin-3(4H)-yl)prop-2-en-1-one]	30.7 nM	112 nM	1780 nM
Cc1cc(Nc2ncnc3cc4c(nc23)N2CCN(C)C[C@H]2CO4)ccc1Oc1ccn2ncnc2c1 [Compound 33, (S)—N-(4-([1,2,4]triazolo[1,5-a]pyridin-7-yloxy)-3-methylphenyl)-3-methyl-1,2,3,4,4a,5-hexahydropyrazino[1,2-d]pyrimido[4′,5′:5,6]pyrido[3,2-b][1,4]oxazin-11-amine]	52.4 nM	271 nM	> 10000 nM
Cc1cc(Nc2ncnc3cnc4c(c23)O[C@H]2CCN(C)C[C@H]2N4C)ccc1Oc1ccc2c(c1)ncn2C [Compound 131, (7aR,11aS)-7,9-dimethyl-N-(3-methyl-4-((1-methyl-1H-benzo[d]imidazol-5-yl)oxy)phenyl)-7a,8,9,10,11,11a-hexahydro-7H-pyrido[4,3-b]pyrimido[5′,4′:4,5]pyrido[2,3-e][1,4]oxazin-1-amine]	32.7 nM	87.1 nM	> 10000 nM
Cc1cc(Nc2ncnc3cnc4c(c23)O[C@@H]2CCN(C)C[C@H]2N4C)ccc1Oc1ccc2c(c1)ncn2C [Compound 133, (7aR,11aR)-7,9-dimethyl-N-(3-methyl-4-((1-methyl-1H-benzo[d]imidazol-5-yl)oxy)phenyl)-7a,8,9,10,11,11a-hexahydro-7H-pyrido[4,3-b]pyrimido[5′,4′:4,5]pyrido[2,3-e][1,4]oxazin-1-amine]	41.9 nM	60.1 nM	> 10000 nM
C=CC(=O)N1CCN2c3nc4c(Nc5ccc(Oc6ccc7c(c6)ncn7C)c(C)c5)ncnc4cc3OC[C@H]2C1 [Compound 8, (R)-1-(11-((3-methyl-4-((1-methyl-1H-benzo[d]imidazol-5-yl)oxy)phenyl)amino)-1,2,4a,5-tetrahydropyrazino[1,2-d]pyrimido[4′,5′:5,6]pyrido[3,2-b][1,4]oxazin-3(4H)-yl)prop-2-en-1-one]	18.1 nM	13.3 nM	643 nM
Cc1cc(Nc2ncnc3ccc4c(c23)OC[C@H]2CN4CCN2C(=O)/C=C/C2CN(C)C2)ccc1Oc1ccn2ncnc2c1 [Compound 80, (E)-1-((3R)-13-((4-([1,2,4]triazolo[1,5-a]pyridin-7-yloxy)-3-methylphenyl)amino)-2,3,5,6-tetrahydro-4H-3,7-methano[1,4,7]oxadiazonino[2,3-f]quinazolin-4-yl)-3-(1-methylazetidin-3-yl)prop-2-en-1-one]	22.8 nM	77.2 nM	701 nM
Cc1c(Oc2ccn3ncnc3c2)ccc(Nc2ncnc3ccc4c(c23)OC[C@@H]2CN(C(=O)/C=C/CN(C)C)CCN42)c1F [Compound 93, (S,E)-1-(4-((4-([1,2,4]triazolo[1,5-a]pyridin-7-yloxy)-2-fluoro-3-methylphenyl)amino)-6a,7,9,10-tetrahydropyrazino[1′,2′:4,5][1,4]oxazino[2,3-f]quinazolin-8(6H)-yl)-4-(dimethylamino)but-2-en-1-one]	18.1 nM	7.75 nM	308 nM
